Patent US7932255B2, “2-aminocarbonyl substituted piperazine or diaza-cyclic compounds as apoptosis protein inhibitors (lap) modulators” (Novartis AG, priority 2006, dated 2011)
Read-outs that look alike come from different tables or passages of the source.

Biological target: T1, XIAP (Homo sapiens, UniProt P98170)
T1 construct: GST
Assay: Disruption of the Smac peptide-(XIAP)BIR3 protein-protein interaction (Tables 2 and 3)
Type: binding
Experimental: IC50 values for Series A compounds for XIAP. An assay capable of measuring disruption of the Smac peptide-(XIAP)BIR3 protein-protein interaction is established in the art as described in Example 2. In this assay IAP Inhibitor compounds compete with an immobilized Smac peptide for occupancy of the BIR3 binding pocket of XIAP. The rationale for this strategy results from the mutually exclusive nature of either Caspase 9 or Smac binding to the BIR3 pocket.
Assays are performed and IC50 values are calculated as follows: […]
IC50 values are calculated by logarithmic regression analysis of the percentage inhibition of each compound at 4 concentrations (usually 3- or 10-fold dilution series starting at 10 μM). In each experiment, the actual inhibition by reference compound is used for normalization of IC50 values to the basis of an average value of the reference inhibitor: Normalized IC50=measured IC50 average ref. IC50/measured ref. IC50
Activity determinations of compounds herein using the testing method described herein and as are well known in the art, are used with the following test compounds of formula (I). […] “Activity” as used herein is defined as having IC50 values for IAP target inhibition of less than 10 μM. Specifically, in the table:
IC50 values for Series B compounds are provided for XIAP. Assays are performed as described above using methods well known in the art.

[1] = Series A compounds, Table 2, read-out: XIAP IC50
[2] = Series B compounds, Table 3, read-out: XIXP IC50

T1 sequence (P98170 248-358 limits assumed, species assumed): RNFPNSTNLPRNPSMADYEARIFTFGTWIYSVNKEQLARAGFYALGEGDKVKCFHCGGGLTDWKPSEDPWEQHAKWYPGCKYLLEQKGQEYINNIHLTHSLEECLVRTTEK

| Structure (SMILES) | IC50 [1] | IC50 [2] |
| --- | --- | --- |
| CN[C@@H](C)C(=O)N[C@H](C(=O)N1CCN(C(=O)N2CCCC2)C[C@H]1C(=O)NC1CCCc2ccccc21)C(C)C (stereo partly drawn) [Compound 47, (S)-1-[(S)-3-Methyl-2-((S)-2-methylamino-propionylamino)-butyryl]-4-(pyrrolidine-1-carbonyl)-piperazine-2-carboxylic acid (1,2,3,4-tetrahydro-naphthalen-1-yl)-amide] | < 10 µM |  |
| CN[C@@H](C)C(=O)N[C@H](C(=O)N1CCN(Cc2ccccc2)C[C@H]1C(=O)NC1CCCc2ccccc21)C1CCCCC1 (stereo partly drawn) [Compound 55, (S)-4-Benzyl-1-[(S)-2-cyclohexyl-2-((S)-2-methylamino-propionylamino)-acetyl]-piperazine-2-carboxylic acid (1,2,3,4-tetrahydro-naphthalen-1-yl)-amide] | < 10 µM |  |
| CC(C)[C@H](NC(=O)[C@H](C)N(C)C(=O)OC(C)(C)C)C(=O)N1CCN(Cc2ccccc2)C[C@H]1C(=O)N[C@@H]1CCCc2ccccc21 [Compound 57, [(S)-1-((S)-1-{(S)-4-Benzyl-2-[(R)-(1,2,3,4-tetrahydro-naphthalen-1-yl)carbamoyl]-piperazine-1-carbonyl}-2-methyl-propylcarbamoyl)-ethyl]-methyl-carbamic acid tert-butyl ester] | > 10 µM |  |
| C[C@@H](C(=O)N[C@H](C(=O)N1CCN(Cc2ccccc2)C[C@H]1C(=O)N[C@@H]1CCCc2ccccc21)C1CCCCC1)N(C)C(=O)OC(C)(C)C [Compound 58, [(S)-1-((S)-2-{(S)-4-Benzyl-2-[(R)-(1,2,3,4-tetrahydro-naphthalen-1-yl)carbamoyl]-piperazin-1-yl}-1-cyclohexyl-2-oxo-ethylcarbamoyl)-ethyl]-methyl-carbamic acid tert-butyl ester] | > 10 µM |  |
| CN[C@@H](C)C(=O)N[C@H](C(=O)N1CCNC[C@H]1C(=O)NC1CCCc2ccccc21)C1CCCCC1 (stereo partly drawn) [Compound 59, (S)-1-[(S)-2-Cyclohexyl-2-((S)-2-methylamino-propionylamino)-acetyl]-piperazine-2-carboxylic acid (1,2,3,4-tetrahydro-naphthalen-1-yl)-amide] | < 10 µM |  |
| CN[C@@H](C)C(=O)N[C@H](C(=O)N1CCN(Cc2ccccc2)C[C@H]1C(=O)NCCc1ccccc1)C(C)C [Compound 61, (S)-4-Benzyl-1-[(S)-3-methyl-2-((S)-2-methylamino-propionylamino)-butyryl]-piperazine-2-carboxylic acid phenethyl-amide] |  | < 10 µM |
| CN[C@@H](C)C(=O)N[C@H](C(=O)N1CCN(Cc2ccccc2)C[C@H]1C(=O)NCCc1cccc(F)c1)C(C)C [Compound 63, (S)-4-Benzyl-1-[(S)-3-methyl-2-((S)-2-methylamino-propionylamino)-butyryl]-piperazine-2-carboxylic acid [2-(3-fluoro-phenyl)-ethyl]-amide] |  | < 10 µM |
| CN[C@@H](C)C(=O)N[C@H](C(=O)N1CCN(Cc2ccccc2)C[C@H]1C(=O)NC(c1ccccc1)c1ccccc1)C(C)C [Compound 64, (S)-4-Benzyl-1-[(S)-3-methyl-2-((S)-2-methylamino-propionylamino)-butyryl]-piperazine-2-carboxylic acid benzhydryl-amide] |  | < 10 µM |
| CN[C@@H](C)C(=O)N[C@H](C(=O)N1CCN(Cc2ccccc2)C[C@H]1C(=O)NCc1ccccc1)C(C)C [Compound 65, (S)-4-Benzyl-1-[(S)-3-methyl-2-((S)-2-methylamino-propionylamino)-butyryl]-piperazine-2-carboxylic acid benzylamide] |  | < 10 µM |
| CN[C@@H](C)C(=O)N[C@H](C(=O)N1CCN(Cc2ccccc2)C[C@H]1C(=O)NCCc1cccnc1)C(C)C [Compound 66, (S)-4-Benzyl-1-[(S)-3-methyl-2-((S)-2-methylamino-propionylamino)-butyryl]-piperazine-2-carboxylic acid (2-pyridin-3-yl-ethyl)-amide] |  | > 10 µM |

Now from value to compound:

| IC50 [1] | IC50 [2] | Structure (SMILES) |
| --- | --- | --- |
| < 10 µM |  | CN[C@@H](C)C(=O)N[C@H](C(=O)N1CCN(C(=O)NC(C)C)C[C@H]1C(=O)NC1CCCc2ccccc21)C(C)C (stereo partly drawn) [Compound 48, (S)-4-[(S)-3-Methyl-2-((S)-2-methylamino-propionylamino)-butyryl]-piperazine-1,3-dicarboxylic acid 1-isopropylamide 3-[(1,2,3,4-tetrahydro-naphthalen-1-yl)-amide]] |
| < 10 µM |  | CN[C@@H](C)C(=O)N[C@H](C(=O)N1CCN(Cc2ccccn2)C[C@H]1C(=O)NC1CCCc2ccccc21)C(C)C (stereo partly drawn) [Compound 49, (S)-1-[(S)-3-Methyl-2-((S)-2-methylamino-propionylamino)-butyryl]-4-pyridin-2-ylmethyl-piperazine-2-carboxylic acid (1,2,3,4-tetrahydro-naphthalen-1-yl)-amide] |
| < 10 µM |  | CN[C@@H](C)C(=O)N[C@H](C(=O)N1CCN(C(=O)N(C)c2ccccc2)C[C@H]1C(=O)NC1CCCc2ccccc21)C(C)C (stereo partly drawn) [Compound 50, (S)-4-[(S)-3-Methyl-2-((S)-2-methylamino-propionylamino)-butyryl]-piperazine-1,3-dicarboxylic acid 1-(methyl-phenyl-amide) 3-[(1,2,3,4-tetrahydro-naphthalen-1-yl)-amide]] |
| < 10 µM |  | CN[C@@H](C)C(=O)N[C@H](C(=O)N1CCN(Cc2ccc(C)cc2)C[C@H]1C(=O)NC1CCCc2ccccc21)C(C)C (stereo partly drawn) [Compound 51, (S)-4-(4-Methyl-benzyl)-1-[(S)-3-methyl-2-((S)-2-methylamino-propionylamino)-butyryl]-piperazine-2-carboxylic acid (1,2,3,4-tetrahydro-naphthalen-1-yl)-amide] |
| < 10 µM |  | CN[C@@H](C)C(=O)N[C@H](C(=O)N1CCN(Cc2ccccc2)C[C@H]1C(=O)NC1CCCc2ccccc21)C(C)C (stereo partly drawn) [Compound 52, (S)-4-Benzyl-1-[(S)-3-methyl-2-((S)-2-methylamino-propionylamino)-butyryl]-piperazine-2-carboxylic acid (1,2,3,4-tetrahydro-naphthalen-1-yl)-amide] |
| < 10 µM |  | CN[C@@H](C)C(=O)N[C@H](C(=O)N1CCN(Cc2ccccc2)C[C@H]1C(=O)NC1CCCc2ccccc21)C(C)C (stereo partly drawn) [Compound 53, (S)-4-Benzyl-1-[(S)-3-methyl-2-((S)-2-methylamino-propionylamino)-butyryl]-piperazine-2-carboxylic acid (1,2,3,4-tetrahydro-naphthalen-1-yl)-amide] |
| < 10 µM |  | CN[C@@H](C)C(=O)N[C@H](C(=O)N1CCN(Cc2ccccc2)C[C@H]1C(=O)NC1CCCc2ccccc21)C(C)C (stereo partly drawn) [Compound 54, (S)-4-Benzyl-1-[(S)-3-methyl-2-((S)-2-methylamino-propionylamino)-butyryl]-piperazine-2-carboxylic acid (1,2,3,4-tetrahydro-naphthalen-1-yl)-amide] |
| < 10 µM |  | CN[C@@H](C)C(=O)N[C@H](C(=O)N1CCNC[C@H]1C(=O)NC1CCCc2ccccc21)C(C)C (stereo partly drawn) [Compound 56, (S)-1-[(S)-3-Methyl-2-((S)-2-methylamino-propionylamino)-butyryl]-piperazine-2-carboxylic acid (1,2,3,4-tetrahydro-naphthalen-1-yl)-amide] |
|  | < 10 µM | CN[C@@H](C)C(=O)N[C@H](C(=O)N1CCN(Cc2ccccc2)C[C@H]1C(=O)NC1CCc2ccccc21)C(C)C (stereo partly drawn) [Compound 62, (S)-4-Benzyl-1-[(S)-3-methyl-2-((S)-2-methylamino-propionylamino)-butyryi]-piperazine-2-carboxylic acid indan-1-ylamide] |
